Experimental data taken from patent US7759345B2, “Antitumoral derivatives of ET-743” (priority 2001, dated 2010).

What was measured:
HT-29 [1] = assay: Inhibition of cells growth by colorimetric assay (SRB), HT-29; assay type: cell-based; conditions: SRB, 48 hours exposure; for GI50 / LC50 (concentration for 50% cell killing): Homo sapiens, HT-29, 48 h; for HT-29 TGI / GI50: HT-29; for GI50: read-out: HT-29 GI50; for LC50 (concentration for 50% cell killing): read-out: HT-29 LC50, HT-29
Procedure, shortened: (§1)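 48 h SRB cytotoxicity assay; compound range 10–10^−8 μg/ml; seeding 5×10^3 cells/well, 18 h pre-attachment; OD 490 nm; GI, TGI, LC from triplicate means ± SD.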

A-549 [2] = assay: Inhibition of cells growth by colorimetric assay (SRB), A-549; assay type: cell-based; conditions: SRB, 48 hours exposure; for GI50 / LC50 (concentration for 50% cell killing): Homo sapiens, A549, 48 h; for A-549 TGI / GI50: A-549; for GI50: read-out: A-549 GI50; for LC50 (concentration for 50% cell killing): read-out: A-549 LC50, A-549
Procedure, shortened: as §1

HT-29 [3] = assay: Inhibition of cell growth by counting cells, HT-29; assay type: cell-based, human; conditions: Homo sapiens, HT-29, 72 h; three days of incubation; read-out: IC50 (molar) HT-29
Procedure, shortened: (§2)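 Counts are net cells per well, averaged from duplicate wells, obtained by Coulter counting after trypsinization following 72 h of exposure at 37 °C. Seeding was 1×10^4 cells per well in EMEM/5% FCS with varied sample concentrations, alongside untreated growth controls. IC50 values derive from dose-response curves of % growth.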

A-549 [4] = assay: Inhibition of cell growth by counting cells, A-549; assay type: cell-based, human; conditions: Homo sapiens, A549, 72 h; three days of incubation; read-out: IC50 (molar) A-549
Procedure, shortened: as §2

P-388 = assay: Inhibition of cell growth by counting cells, P-388; assay type: cell-based, mouse; conditions: Mus musculus, P388, 72 h; three days of incubation; read-out: IC50 (molar) P-388
Procedure, shortened: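 IC50 is the sample concentration halving growth, taken from dose-response curves of cell counts (Coulter counter, duplicate wells) relative to drug-free cultures. P-388 (DBA/2 mouse lymphoid neoplasm) cells plated at 1×10^4 per well in EMEM with 5% FCS plus test sample.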

MEL-28 = assay: Inhibition of cell growth by counting cells, MEL-28; assay type: cell-based, human; conditions: Homo sapiens, SK-MEL-28, 72 h; three days of incubation; read-out: IC50 (molar) MEL-28
Procedure, shortened: as §2

Description for Heart: (§3) Toxicity was asssessed by the methods reported in Toxicology in Vitro, 15 (2001) 571-577, J. Luber Narod et al.: “Evaluation of the use of in vitro methodolodies as tools for screening new compounds for potential in vivo toxicity”.
Description for Kidney: as §3
Description for Liver: as §3
Description for Myelo: as §3
Description for Skeletal: as §3

| SMILES | HT-29 TGI (HT-29 [1]) | GI50 (HT-29 [1]) | LC50 (concentration for 50% cell killing) (HT-29 [1]) | Toxicity Data Myelo (Myelo) | Toxicity Data Liver (Liver) | Toxicity Data Heart (Heart) | A-549 TGI (A-549 [2]) | GI50 (A-549 [2]) | LC50 (concentration for 50% cell killing) (A-549 [2]) | Toxicity Data Skeletal (Skeletal) | Toxicity Data Kidney (Kidney) | IC50 (HT-29 [3]) | IC50 (A-549 [4]) | IC50 (P-388) | IC50 (MEL-28) |
| --- | --- | --- | --- | --- | --- | --- | --- | --- | --- | --- | --- | --- | --- | --- | --- |
| CCCC(=O)Oc1c(C)c2c(c3c1[C@H]1SC[C@]4(NCCc5cc(O)c(OC)cc54)C(=O)OC[C@@H]3N3C1[C@H]1c4c(cc(C)c(OC)c4O)C[C@@H]([C@@H]3O)N1C)OCO2 (stereo partly shown) [Compound 163] | 1.14E-09 | 0.38 nM | 3.8 nM | 2.38E-07 | 9.80E-07 | 4.80E-07 | 2.53E-09 | 0.38 nM | 8.86 nM | 2.53E-06 | 6.33E-07 |  |  |  |  |
| C=CCOc1c(C)c2c(c3c1[C@H]1SC[C@]4(NCCc5cc(O)c(OC)cc54)C(=O)OC[C@@H]3N3C1[C@H]1c4c(cc(C)c(OC)c4O)C[C@@H]([C@@H]3O)N1C)OCO2 (stereo partly shown) [Compound 183] |  |  |  | 2.39E-08 | 3.03E-08 | 3.72E-08 |  |  |  | 2.67E-08 | 6.72E-03 | 0.132 nM | 0.132 nM |  |  |
| COc1cc2c(cc1OC(C)=O)CCN[C@]21CS[C@@H]2c3c(OC(C)=O)c(C)c4c(c3[C@H](COC1=O)N1C2[C@H]2c3c(cc(C)c(OC)c3O)C[C@@H]([C@@H]1O)N2C)OCO4 (stereo partly shown) [Compound 57] |  |  |  | 1.85E-08 | 4.66E-09 | 3.48E-09 |  |  |  |  | 3.35E-09 | 0.149 nM | 0.149 nM | 0.149 nM | 0.149 nM |
| C=COC(=O)Oc1cc2c(cc1OC)[C@@]1(CS[C@@H]3c4c(OC(C)=O)c(C)c5c(c4[C@H](COC1=O)N1C3[C@H]3c4c(cc(C)c(OC)c4OC(=O)OC=C)C[C@@H]([C@@H]1O)N3C)OCO5)N(C(=O)OC=C)CC2 (stereo partly shown) [Compound 99] | 1.03E-07 | 34.3 nM | 10300 nM | 1.45E-07 | 4.80E-08 | 1.13E-07 | 9.96E-08 | 43.5 nM | 10300 nM | 9.71E-08 | 2.56E-08 |  |  |  |  |
